Assay results published in patent US20110301137A1 (APEX LABORATORIES PRIVATE LIMITED, priority 2009, published 2011).
Like-named read-outs stand apart in the source and are kept apart here.

Assay type: physicochemical
Details: for degradation of the API: 3 months; for Initial (%): at time of receipt of the API from the supplier

| SMILES | degradation of the API | Initial (%) (Fusidic Acid BP) | Initial (%) (Sodium Fusidate BP) |
| --- | --- | --- | --- |
| CC(=O)O[C@H]1C[C@@]2(C)[C@@H](C[C@@H](O)[C@H]3[C@@]4(C)CC[C@@H](O)[C@@H](C)[C@@H]4CC[C@@]32C)/C1=C(\CCC=C(C)C)C(=O)O [Fusidic Acid, Fusidic acid] | 7.7-11% | 100.6 | – |
| CC(=O)O[C@H]1C[C@@]2(C)[C@@H](C[C@@H](O)[C@H]3[C@@]4(C)CC[C@@H](O)[C@@H](C)[C@@H]4CC[C@@]32C)/C1=C(\CCC=C(C)C)C(=O)O [Sodium Fusidate] | 2.45-6% | – | 98.7 |
